Inhibition data for one compound are collected here from article PMC3877196 (Toxicon : official journal of the International Society on …, 2013).

The structures appear in SMILES notation. *1 amine or outer side, *2 acyl side, *3 side chain or, on linkers, in order; H or OH if unused. Where a SMILES comes first, the peptide text is derived from it. CO = O=C([*:1])[*:2]

For orientation: inhibition means how much of the control response was suppressed.

The target in this assay is T1, IXOSP (Ixodes scapularis salivary serine protease) (Ixodes scapularis, UniProt Q4PMM2).
T1 sequence (Q4PMM2 51-273): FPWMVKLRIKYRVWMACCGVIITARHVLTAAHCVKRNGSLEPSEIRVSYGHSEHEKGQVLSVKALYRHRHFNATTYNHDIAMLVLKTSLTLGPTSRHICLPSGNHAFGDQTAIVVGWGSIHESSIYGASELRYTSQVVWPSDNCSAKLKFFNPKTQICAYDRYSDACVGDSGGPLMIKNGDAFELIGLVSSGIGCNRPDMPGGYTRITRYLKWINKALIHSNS
Nature of the assay: amidolytic assay, pNA release at […] nm. The format is biochemical. Particulars: read-out: Inhibition of activity (% ± SD).

Consider `CC(C)[C@H](NC(=O)[C@H](CCCNC(=N)N)NC(=O)N[C@@H](Cc1ccccc1)C(=O)O)C(=O)N[C@H](C=O)CCCNC(=N)N` [Antipain] ({Phe-CO}-Arg-Val-Arg-aldehyde), for which the inhibition at 30 µM came to 55 ± 4%.
